Results as given in paper PMC4314249, “Characterizing the Peroxisome Proliferator-Activated Receptor (PPARγ) Ligand Binding Potential of Several Major Flame Retardants, Their Metabolites, and Chemical Mixtures in House Dust” (Environmental Health Perspectives, 2014).
Where two headings read alike, the source gives them in different places.

Experiments:
[1] = molecular target: T1, human PPARγ ligand-binding domain (Homo sapiens, UniProt P37231); assay: PolarScreen PPARγ-Competitor fluorescence polarization ligand binding assay
T1 construct: The kit uses the human-derived recombinant PPARγ LBD tagged with an N-terminal GST-tag; purchased Invitrogen
T1 sequence (P37231 238-503 limits assumed): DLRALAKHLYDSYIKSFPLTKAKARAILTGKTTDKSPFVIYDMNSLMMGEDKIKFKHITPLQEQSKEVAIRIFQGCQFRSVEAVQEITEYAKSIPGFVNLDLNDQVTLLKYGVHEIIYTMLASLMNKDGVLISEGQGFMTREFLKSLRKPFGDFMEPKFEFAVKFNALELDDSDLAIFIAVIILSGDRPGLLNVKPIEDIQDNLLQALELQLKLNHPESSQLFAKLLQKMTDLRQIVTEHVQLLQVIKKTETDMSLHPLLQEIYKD

PPARγ2 = test system: PPARγ2; parameters: method as in Suzuki et al. (2013); details: U2OS reporter assay; ref Suzuki et al. (2013); cited from earlier work
[2] = MEHP formation on incubation of dust with S9 fraction; assay type: in vitro ADME, Sprague-Dawley rats
Experimental: Bioactivation of dust samples. We assessed the influence of biotransformation on ligand binding activity by incubating dust extracts in pooled liver S9 fractions prepared from Sprague-Dawley rats [Rat (Sprague-Dawley) S9 Fractions; Gibco, Grand Island, NY). Bioactivation was assessed in 7 of the 23 dust samples (1 dust sample was tested in triplicate, while the others were tested once because of dust mass limitations) and in SRM 2585 (n = 3). The 7 dust samples were from groups A (samples 5, 7, and 8), B (samples 9 and 10), and C (samples 11 and 12). The influence of biotransformation was also investigated using pure chemical standards. DEHP (100 μM) and a mixture (MIX) containing 1 μM each of FM550, isopropylated triaryl phosphate (ITP), BDE-47, BDE-99, and DEHP were evaluated for binding activity before and after bioactivation. For a detailed description of the method, see Supplemental Material, “Bioactivation of Dust Samples” and Figure S3. Briefly, dust samples were bioactivated by incubation with an S9 fraction (1 mg protein/mL), extracted, and cleaned by dextran-assisted liquid–liquid extraction and phenolic extraction. […]
For each dose level of tested compounds, triplicate samples were prepared and each well was read five times in the plate reader. […]

PPARγ LBD = molecular target: T2, PPARγ LBD (Homo sapiens, UniProt P37231); assay: PPARγ competitive binding after bioactivation with rat liver S9 fraction (active vs inactive S9); details: 100 μM, n = 3, rat liver S9
T2 construct: The kit uses the human-derived recombinant PPARγ LBD tagged with an N-terminal GST-tag; purchased Invitrogen
T2 sequence (P37231 238-503 limits assumed): T1 sequence (P37231 238-503 limits assumed)

[3] = read-out: Kd (dissociation constant)
[4] = calculated from IC50 by equation 3, read-out: Kd (dissociation constant)

CCCCOCCOP(=O)(OCCOCCCC)OCCOCCCC [TBEP, tris(2-butoxyethyl) phosphate]
IC50 [1]: 103 µM | Kd [1]: 53.7 µM | Relative potency [1]: 0.0022

Oc1c(I)cc(I)cc1I [2,4,6-TIP, 2,4,6-triiodophenol]
IC50 [1]: 1.84 µM | Kd [1]: 0.96 µM | Relative potency [1]: 0.1250

O=C(O)c1cc(Br)c(Br)c(Br)c1Br [TBBA, 2,3,4,5-tetrabromo benzoic acid]
IC50 [1]: 42 µM | Kd [1]: 22.1 µM | Relative potency [1]: 0.0055

CCCCC(CC)COC(=O)c1cc(Br)c(Br)c(Br)c1Br (centres unmarked) [TBB, 2-ethylhexyl-2,3,4,5-tetrabromobenzoate]
IC50 [1]: > 250 µM | Kd [1]: > 130 µM | PPARγ binding (in words) [1]: did not show any binding activity

Oc1cc(Oc2cc(Br)c(Br)cc2Br)c(Br)cc1Br [5´-OH-BDE-99]
Relative potency [1]: 0.0077 | IC50 ([1]; read-out: IC50): 30 µM | Kd [1, 3]: 15.7 µM

Oc1cc(Br)cc(Br)c1Oc1cc(Br)c(Br)cc1Br [6´-OH-BDE-99]
PPARγ binding (in words) [1]: not active ligands | Relative potency [1]: < 0.0046 | IC50 ([1]; read-out: IC50): > 50 µM | Kd [1, 3]: > 26.1 µM

Brc1ccc(Oc2ccc(Br)cc2Br)c(Br)c1 [BDE-47, 2,2´,4,4´-tetrabromodiphenyl ether]
5% induction concentration (PPARγ2): 10 µM | IC50 ([1]; read-out: IC50): > 12 µM | Kd [1, 3]: > 6.25 µM

Oc1c(F)cc(F)cc1F [2,4,6-TFP, 2,4,6-trifluorophenol]
Kd [1, 4]: > 130 µM | IC50 ([1]; read-out: IC50): > 250 µM

O=P(O)(Oc1ccccc1)Oc1ccccc1 [DPP, diphenyl phosphate]
IC50 [1]: 627 µM | Kd [1]: 327 µM | Relative potency [1]: 0.0004

Oc1cc(Oc2ccc(Br)cc2Br)c(Br)cc1Br [5-OH-BDE-47]
Relative potency [1]: 0.0744 | IC50 ([1]; read-out: IC50): 3.09 µM | Kd [1, 3]: 1.61 µM

CC(C)(c1cc(Cl)c(O)c(Cl)c1)c1cc(Cl)c(O)c(Cl)c1 [TCBPA, 3,3´,5,5´-tetrachlorobisphenol A]
Relative potency [1]: 0.0444 | IC50 ([1]; read-out: IC50): 5.18 µM | Kd [1, 3]: 2.7 µM

Oc1cc(Cl)ccc1Oc1ccc(Cl)cc1Cl [Triclosan, triclosan]
IC50 [1]: 12.5 µM | Kd [1]: 6.52 µM | Relative potency [1]: 0.0184

Oc1c(Br)cc(Br)cc1Br [2,4,6-TBP, 2,4,6-Tribromophenol]
IC50 [1]: 36.3 µM | Kd [1]: 18.9 µM | Relative potency [1]: 0.0063

Oc1c(Br)ccc(Oc2ccc(Br)cc2Br)c1Br [3-OH-BDE-47]
Relative potency [1]: 0.9583 | IC50 ([1]; read-out: IC50): 0.24 µM | Kd [1, 3]: 0.13 µM

CC(C)(c1ccc(O)cc1)c1ccc(O)cc1 [BPA, bisphenol A]
PPARγ binding (in words) [1]: did not exhibit any binding | IC50 ([1]; read-out: IC50): > 250 µM | Kd [1, 3]: > 130 µM

Oc1c(Cl)cc(Cl)cc1Cl [2,4,6-TCP, 2,4,6,-trichlorophenol]
Relative potency [1]: 0.0023 | IC50 ([1]; read-out: IC50): 100 µM | Kd [1, 3]: 52.2 µM

O=P(Oc1ccccc1)(Oc1ccccc1)Oc1ccccc1 [TPP, triphenyl phosphate]
IC50 [1]: 40 µM | Kd [1]: 20.9 µM | Relative potency [1]: 0.0058

[Cl][Sn]([c]1ccccc1)([c]1ccccc1)[c]1ccccc1 [TPT, triphenyltin chloride]
Relative potency [1]: 0.1337 | IC50 ([1]; read-out: IC50): 1.72 µM | Kd [1, 3]: 0.9 µM

Brc1ccc(Oc2cc(Br)c(Br)cc2Br)c(Br)c1 [BDE–99, 2,2´,4,4´,5-pentabromodiphenyl ether]
PPARγ binding (in words) [1]: no binding was observed | IC50 ([1]; read-out: IC50): > 250 µM | Kd [1, 3]: > 130 µM

CCCCC(CC)COC(=O)c1ccccc1C(=O)O (centres unmarked) [MEHP, mono(2-ethylhexyl) phthalate]
MEHP formation rate [2]: approximately 70 pmol/mg protein/min

CCCCC(CC)COC(=O)c1ccccc1C(=O)OCC(CC)CCCC (centres unmarked) [DEHP, di-(2-ethylhexyl) phthalate]
Kd [1, 4]: > 130 µM | IC50 ([1]; read-out: IC50): > 250 µM | change of PPARγ binding potency after bioactivation (in words) (PPARγ LBD): slightly increased

CCCCC(CC)COC(=O)c1c(Br)c(Br)c(Br)c(Br)c1C(=O)OCC(CC)CCCC (centres unmarked) [TBPH, bis(2-ethylhexyl) tetrabromophthalate]
IC50 [1]: > 250 µM | Kd [1]: > 130 µM | PPARγ binding (in words) [1]: did not show any binding activity

Oc1cc(Br)cc(Br)c1Oc1ccc(Br)cc1Br [6-OH-BDE-47]
PPARγ binding (in words) [1]: not active ligands | Relative potency [1]: < 0.023 | IC50 ([1]; read-out: IC50): > 10 µM | Kd [1, 3]: > 5.22 µM
